The assay concerns the target T1, Purified bovine PKA (catalyst subunit) (Bos taurus, UniProt P00517).
T1 construct: Purified bovine PKA (catalyst subunit, Promega); purchased Promega
The assay is described as follows: PKA kinase assay (Kinase-Glo ATP consumption). It counts as biochemical. Conditions: for pIC50: 1 μM ATP, read-out: Kinase Inhibiting Activity (IC50) PKA; for Realative Inhibitory Activity PKA: relative ratio to ROCKII (=1.0), based on IC50 values. The protocol:
Purified bovine PKA (catalyst subunit, Promega) was used to evaluate its activity to phosphorylate a substrate peptide (LRRASLG, Promega).
In a system of the total volume of 50 μL, the reaction of the above-mentioned enzyme (43 ng) was carried out at room temperature for 20 minutes in the presence of 40 mM of Tris-HCl (pH 7.5), 20 mM of magnesium chloride, 1 mg/mL of BSA, 5 μM of the above peptide, and 1 μM of ATP. After the kinase reaction, the luminescence intensity corresponding to the amount of ATP in the reaction system was measured using a luciferase reagent (Kinase-Glo Luminescent Kinase Assay kit, Promega) with a chemiluminescence measurement apparatus (MicroLumat, Berthold Technologies). The amount of ATP consumed by the phosphorylation reaction was calculated by comparison with the luminescence intensity in the system when the kinase reaction was not carried out.
With this system, the kinase reaction was carried out in the presence of a compound at various concentrations, and the IC50 value of the compound was determined based on the resulting compound concentration-response curve for ATP consumption.
The ROCKII-inhibiting activity of a compound to be tested was defined as 1.0, and the inhibitory activities of the compound against kinases (PKA, PKG, CaMKII, and AuroraA) other than ROCKII were calculated as relative ratios to the ROCKII-inhibiting activity, based on the IC50 values calculated using the above-described evaluation system.
Background: Kinase-Glo reads ATP consumption through a luciferase reaction.

The term pIC50 denotes the IC50 on a negative log10 scale, so that one unit is a factor of ten.

pIC50: −log10 of the molar value.

In the case of “2-(S)-1-(4-fluoroisoquinoline-5-sulfonyl)-4-glycyl-2-methylhomopiperazine dihydrochloride [Example 1]”, the pIC50 was under 4.00 and the “Realative Inhibitory Activity PKA” value is given as over 3000.
`CNCC(=O)N1CCCN(S(=O)(=O)c2cccc3cncc(F)c23)[C@@H](C)C1.Cl.Cl` [Example 2, 2-(S)-1-(4-fluoroisoquinoline-5-sulfonyl)-2-methyl-4-(N-methylglycyl)homopiperazine dihydrochloride]: the pIC50 was under 4.00 and the “Realative Inhibitory Activity PKA” value is given as over 3000.

The values are drawn from patent publication US20090306053A1, “Highly selective rho-kinase inhibitor” (priority 2005, published 2009).
